Measured values reported in the supplement of paper PMC4977894.
Counter-ions that a name gives are not always drawn. ± gives the standard deviation of the averaged measurements.

Experiments:
[1] = test system: Homo sapiens (human subject panel, olfactory perception); assay: perceived odor familiarity rating (rating 0-100); higher = more familiar
Summary of the method: (§1)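 Fifty-five healthy human subjects aged 18–50 took part, and the six lowest performers were excluded. Each molecule was diluted in paraffin oil at high and low concentrations, and 1 mL was sniffed in randomized order over ten visits of 100 stimuli each. Subjects who reported smelling a stimulus rated it on a computerized slider that started at 50 and had to be moved, with positions converted to a 0–100 scale. The familiarity, intensity and pleasantness values are averages across subjects.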

[2] = test system: Homo sapiens (human subject panel, olfactory perception); assay: perceived odor pleasantness rating (rating 0-100); higher = more pleasant
Summary of the method: as §1

[3] = test system: Homo sapiens (human subject panel, olfactory perception); assay: perceived odor intensity rating (rating 0-100); higher = stronger perceived smell
Summary of the method: as §1

[4] = odor dilution in paraffin oil: 1/1,000
[5] = odor dilution in paraffin oil: 1/100,000
[6] = odor dilution in paraffin oil: 1/10
[7] = odor dilution in paraffin oil: 1/10,000,000

Compound | perceived odor familiarity rating [1, 4] | perceived odor familiarity rating [1, 5] | perceived odor pleasantness rating [2, 4] | perceived odor pleasantness rating [2, 5] | perceived odor intensity rating [3, 4] | perceived odor intensity rating [3, 5] | perceived odor familiarity rating [1, 6] | perceived odor pleasantness rating [2, 6] | perceived odor intensity rating [3, 6] | perceived odor familiarity rating [1, 7] | perceived odor pleasantness rating [2, 7] | perceived odor intensity rating [3, 7]
COc1ccccc1 [anisole] | 45 ± 34 | 35.4 ± 33 | 29.3 ± 26 | 50.2 ± 26 | 75.3 ± 24 | 30.9 ± 30 |  |  |  |  |  | 
CCCCCCCCCCCCCCCCO [1-Hexadecanol] | 42.6 ± 27 |  | 35.4 ± 24 |  | 35.8 ± 26 |  | 40.1 ± 30 | 43 ± 24 | 43.5 ± 31 |  |  | 
CCCCCCCC(=O)OCCCCCC [Hexyl octanoate] | 42.9 ± 32 | 28 ± 23 | 52.4 ± 18 | 46.4 ± 22 | 23 ± 19 | 16.5 ± 24 |  |  |  |  |  | 
CCc1ccc(O)c(OC)c1 [4-Ethylguaiacol] | 57.6 ± 32 | 52.1 ± 32 | 41.7 ± 27 | 43.8 ± 24 | 78 ± 17 | 69.4 ± 23 |  |  |  |  |  | 
Cc1ccco1 [2-Methylfuran] |  | 36.9 ± 27 |  | 52.6 ± 21 |  | 25.1 ± 29 |  |  |  | 38.5 ± 24 | 39.4 ± 22 | 28.9 ± 27
CC/C=C\CCOC(=O)c1ccccc1O [cis-3-Hexenyl salicylate] | 40.2 ± 26 | 36.8 ± 33 | 48.1 ± 26 | 49.8 ± 24 | 49.2 ± 30 | 9.75 ± 16 |  |  |  |  |  | 
CCCCCCC(=O)OC [Methyl heptanoate] | 48.9 ± 33 | 39.5 ± 30 | 58.8 ± 25 | 53 ± 24 | 52.9 ± 30 | 21.7 ± 28 |  |  |  |  |  | 
CCCCCCCCCCCCCCCCCC(=O)OCC [Ethyl stearate] | 33.1 ± 24 |  | 43.4 ± 15 |  | 17 ± 17 |  | 38.3 ± 34 | 45.7 ± 25 | 46.8 ± 33 |  |  | 
Cc1ccc2ncccc2c1 [6-methyl quinoline] | 44 ± 30 | 44.3 ± 31 | 36.7 ± 27 | 60.4 ± 23 | 68.2 ± 27 | 50.9 ± 30 |  |  |  |  |  | 
Cc1ncsc1CCO [4-Methyl-5-thiazoleethanol] | 56.7 ± 32 | 39.9 ± 28 | 29.6 ± 25 | 37.8 ± 24 | 73.1 ± 20 | 48.6 ± 29 |  |  |  |  |  | 
CCCCC(=O)OCC [Ethyl Valerate] | 67.1 ± 33 | 58.9 ± 30 | 71.4 ± 26 | 73.6 ± 20 | 75.2 ± 22 | 50.6 ± 28 |  |  |  |  |  | 
CC(C)CCN [Isoamylamine] |  | 37.5 ± 29 |  | 40.2 ± 25 |  | 37.5 ± 30 |  |  |  | 32.1 ± 27 | 46.1 ± 22 | 15.1 ± 27
CC(=O)CCc1ccc(O)cc1 [4-(4-Hydroxyphenyl)-2-butanone] | 46.1 ± 28 |  | 50.6 ± 24 |  | 46.3 ± 30 |  | 40.1 ± 29 | 49.6 ± 27 | 50.2 ± 29 |  |  | 
O=C(OCCc1ccccc1)c1ccccc1O [Phenethyl salicylate] | 33.8 ± 29 |  | 49.2 ± 22 |  | 17.8 ± 25 |  | 38.8 ± 29 | 58.9 ± 22 | 37.3 ± 31 |  |  | 
CCCC(C)C(=O)O (stereo not given) [2-Methylpentanoic acid] |  | 37.4 ± 31 |  | 50 ± 25 |  | 31.7 ± 30 |  |  |  | 38 ± 29 | 37.9 ± 24 | 35.6 ± 33
C=CC1(C)CCC(C(C)(C)O)O1 (stereo not given) [linalool oxide] | 42.8 ± 31 | 37 ± 28 | 46.5 ± 26 | 49.6 ± 19 | 44.4 ± 31 | 15.9 ± 19 |  |  |  |  |  | 
CCCCCCCCCO [nonanol] | 46.9 ± 29 | 35.6 ± 31 | 35.8 ± 24 | 42.9 ± 25 | 66.4 ± 26 | 28.5 ± 30 |  |  |  |  |  | 
CC(=O)OC(C)(C)Cc1ccccc1 [alpha,alpha-Dimethylphenethyl acetate] | 40.3 ± 30 |  | 52.5 ± 21 |  | 36.6 ± 30 |  | 48.8 ± 32 | 51.9 ± 31 | 79 ± 17 |  |  | 

Compound | perceived odor familiarity rating [1, 4] | perceived odor familiarity rating [1, 5] | perceived odor pleasantness rating [2, 4] | perceived odor pleasantness rating [2, 5] | perceived odor intensity rating [3, 4] | perceived odor intensity rating [3, 5] | perceived odor familiarity rating [1, 6] | perceived odor pleasantness rating [2, 6] | perceived odor intensity rating [3, 6] | perceived odor familiarity rating [1, 7] | perceived odor pleasantness rating [2, 7] | perceived odor intensity rating [3, 7]
CCCC(O)CC (stereo not given) [3-hexanol] | 43.1 ± 31 | 28.1 ± 23 | 35.1 ± 26 | 49.1 ± 24 | 71.3 ± 28 | 29.7 ± 30 |  |  |  |  |  | 
CC(=O)c1ccc2ccccc2c1 [Methyl beta-naphthyl ketone] | 62.6 ± 27 |  | 60.7 ± 25 |  | 63.8 ± 26 |  | 58 ± 30 | 54.4 ± 30 | 78.8 ± 16 |  |  | 
CC(C)(C)O [tert-butanol] | 34.7 ± 29 |  | 58.8 ± 22 |  | 24.8 ± 30 |  | 47.5 ± 32 | 44.9 ± 24 | 56 ± 32 |  |  | 
CCC(O)c1ccccc1 (stereo not given) [1-Phenyl-1-propanol] | 39.2 ± 31 | 25.5 ± 26 | 54 ± 20 | 48.9 ± 19 | 36.6 ± 32 | 15.2 ± 22 |  |  |  |  |  | 
CCCCO [butanol] |  | 35.8 ± 32 |  | 42.7 ± 25 |  | 19.8 ± 23 |  |  |  | 27 ± 30 | 49.7 ± 26 | 10.7 ± 19
CSCCCO [3-(methylthio)-1-propanol] |  | 53.7 ± 31 |  | 22.9 ± 26 |  | 82.2 ± 17 |  |  |  | 43.2 ± 31 | 24.8 ± 22 | 66.3 ± 26
C=C(C)C1CC=C(C)C(=O)C1 (single isomer, unassigned; (-)) [(-)-Carvone] | 77.9 ± 25 |  | 78.2 ± 19 |  | 72.6 ± 20 |  | 81.2 ± 24 | 78.6 ± 16 | 84.3 ± 15 |  |  | 
CSCSC [Bis(methylthio)methane] |  | 50.3 ± 34 |  | 25.1 ± 25 |  | 78.7 ± 22 |  |  |  | 38.9 ± 31 | 45.4 ± 25 | 33.8 ± 26
c1ccsc1 [Thiophene (replicate)] | 53.9 ± 31 | 42.1 ± 26 | 33.7 ± 27 | 36 ± 22 | 66.4 ± 25 | 27.6 ± 31 |  |  |  |  |  | 
CCCCCCCCC(C)=O [2-decanone] | 44 ± 29 | 30.3 ± 23 | 49.5 ± 25 | 51.2 ± 26 | 44.8 ± 30 | 24.6 ± 26 |  |  |  |  |  | 
CC(=O)OC1CC(C)CCC1C(C)C [L-Menthyl acetate (replicate)] | 39.2 ± 30 |  | 58.9 ± 18 |  | 34.3 ± 28 |  | 56.9 ± 30 | 61.6 ± 21 | 59.6 ± 29 |  |  | 
COc1cc(C(=O)O)ccc1O [4-hydroxy-3-methoxybenzoic acid] | 45.4 ± 24 |  | 44.1 ± 23 |  | 28.8 ± 29 |  | 51.9 ± 29 | 54.7 ± 28 | 65.3 ± 26 |  |  | 
Cc1ncc(C[n+]2csc(CCO)c2C)c(N)n1 [Thiamine hydrochloride] | 44.7 ± 28 |  | 36.4 ± 22 |  | 61.6 ± 25 |  | 51.5 ± 29 | 35.5 ± 25 | 67.1 ± 23 |  |  | 
CCCCCCC(C)=O [2-octanone] | 51.9 ± 26 | 36.6 ± 25 | 52.5 ± 25 | 52.2 ± 16 | 66.8 ± 26 | 20 ± 26 |  |  |  |  |  | 
COc1ccccc1OC(C)=O [2-Methoxyphenyl acetate] | 46.3 ± 30 | 45.5 ± 30 | 37.4 ± 27 | 45.5 ± 27 | 74.2 ± 20 | 56 ± 30 |  |  |  |  |  | 
CCSSCC [Diethyl disulfide] | 52.5 ± 35 | 51.2 ± 32 | 21.3 ± 27 | 28.4 ± 24 | 85.9 ± 16 | 60.6 ± 34 |  |  |  |  |  | 
CCCCCCCCCC(=O)OCC [Ethyl decanoate] | 38.9 ± 27 |  | 49.6 ± 24 |  | 21.2 ± 24 |  | 50.9 ± 30 | 58.2 ± 26 | 59.8 ± 30 |  |  | 
